# ChEMBL document CHEMBL3286253, “Design, synthesis, and structure-activity relationship studies of novel thioether pleuromutilin derivatives as potent antibacterial agents” (J Med Chem, 2014)
# Tests used:
# Cytochrome P450 2C19 = Cytochrome P450 2C19 (Homo sapiens, UniProt P33261); assay: Inhibition of CYP2C19 in human liver microsomes using mephenytoin as substrate after 15 mins by LC/MS/MS analysis
# Cytochrome P450 2D6 = Cytochrome P450 2D6 (Homo sapiens, UniProt P10635); assay: Inhibition of CYP2D6 in human liver microsomes using dextromethorphan as substrate after 15 mins by LC/MS/MS analysis
# [1] = system: Staphylococcus epidermidis; assay: Antibacterial activity against methicillin-resistant Staphylococcus epidermidis after 16 hrs by agar dilution method; format: functional
# Streptococcus pneumoniae = assay: Antibacterial activity against penicillin-resistant Streptococcus pneumoniae after 16 hrs by agar dilution method; format: functional
# Staphylococcus aureus [2] = assay: Antibacterial activity against Staphylococcus aureus […] after 16 hrs by agar dilution method; format: functional
# Cytochrome P450 2C9 = Cytochrome P450 2C9 (Homo sapiens, UniProt P11712); assay: Inhibition of CYP2C9 in human liver microsomes using tolbutamide as substrate after 15 mins by LC/MS/MS analysis
# Staphylococcus aureus [3] = assay: Antibacterial activity against methicillin-sensitive Staphylococcus aureus after 16 hrs by agar dilution method; format: functional
# Cytochrome P450 1A2 = target: T1, Cytochrome P450 1A2 (Homo sapiens, UniProt P05177); assay: Inhibition of CYP1A2 in human liver microsomes using phenacetin as substrate after 15 mins by LC/MS/MS analysis
# T1 sequence (P05177 whole entry): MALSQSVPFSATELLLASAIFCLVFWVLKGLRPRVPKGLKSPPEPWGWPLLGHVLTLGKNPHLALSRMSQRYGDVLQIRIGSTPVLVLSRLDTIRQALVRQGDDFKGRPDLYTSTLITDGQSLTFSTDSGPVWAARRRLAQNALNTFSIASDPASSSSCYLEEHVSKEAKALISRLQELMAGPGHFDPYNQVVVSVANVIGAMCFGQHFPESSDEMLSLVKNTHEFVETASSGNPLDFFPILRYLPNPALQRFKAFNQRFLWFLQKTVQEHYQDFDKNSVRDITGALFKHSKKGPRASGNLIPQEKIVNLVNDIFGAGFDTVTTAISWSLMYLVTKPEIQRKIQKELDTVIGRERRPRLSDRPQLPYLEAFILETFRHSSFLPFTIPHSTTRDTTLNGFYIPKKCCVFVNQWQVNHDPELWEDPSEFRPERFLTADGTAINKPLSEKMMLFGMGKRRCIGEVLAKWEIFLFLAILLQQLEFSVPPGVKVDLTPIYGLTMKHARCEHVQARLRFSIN
# Staphylococcus aureus [4] = assay: Antibacterial activity against methicillin-resistant Staphylococcus aureus after 16 hrs by agar dilution method; format: functional
# [5] = system: Staphylococcus epidermidis; assay: Antibacterial activity against methicillin-sensitive Staphylococcus epidermidis after 16 hrs by agar dilution method; format: functional
# Cytochrome P450 3A4 [6] = target: T2, Cytochrome P450 3A4 (Homo sapiens, UniProt P08684); assay: Inhibition of CYP3A4 in human liver microsomes using testosterone as substrate after 15 mins by LC/MS/MS analysis
# Cytochrome P450 3A4 [7] = target: T2, Cytochrome P450 3A4; assay: Inhibition of CYP3A4 in human liver microsomes using midazolam as substrate after 15 mins by LC/MS/MS analysis
# [8] = Aqueous solubility of the compound in water at pH 7.4; conditions: buffer
# [9] = Elimination half life in Sprague-Dawley rat at 2 mg/kg, iv administered as cassette dosing; format: ADME, organism-based; design: dose 2 mg/kg, route intravenous; conditions: in vivo, read-out: beta t1/2 (converted)
# [10] = Clearance in Sprague-Dawley rat at 2 mg/kg, iv administered as cassette dosing; format: ADME, organism-based; design: dose 2 mg/kg, route intravenous; conditions: in vivo
# [11] = Mean residence time in Sprague-Dawley rat at 2 mg/kg, iv administered as cassette dosing; format: ADME, organism-based; design: dose 2 mg/kg, route intravenous; conditions: in vivo
# [12] = Volume of distribution at steady state in Sprague-Dawley rat at 2 mg/kg, iv administered as cassette dosing; format: ADME, organism-based; design: dose 2 mg/kg, route intravenous; conditions: in vivo, read-out: Vdss
# [13] = AUC (0 to t) in Sprague-Dawley rat at 2 mg/kg, iv administered as cassette dosing; format: ADME, organism-based; design: dose 2 mg/kg, route intravenous; conditions: plasma
# Sequence of Cytochrome P450 2C19 (P33261 whole entry): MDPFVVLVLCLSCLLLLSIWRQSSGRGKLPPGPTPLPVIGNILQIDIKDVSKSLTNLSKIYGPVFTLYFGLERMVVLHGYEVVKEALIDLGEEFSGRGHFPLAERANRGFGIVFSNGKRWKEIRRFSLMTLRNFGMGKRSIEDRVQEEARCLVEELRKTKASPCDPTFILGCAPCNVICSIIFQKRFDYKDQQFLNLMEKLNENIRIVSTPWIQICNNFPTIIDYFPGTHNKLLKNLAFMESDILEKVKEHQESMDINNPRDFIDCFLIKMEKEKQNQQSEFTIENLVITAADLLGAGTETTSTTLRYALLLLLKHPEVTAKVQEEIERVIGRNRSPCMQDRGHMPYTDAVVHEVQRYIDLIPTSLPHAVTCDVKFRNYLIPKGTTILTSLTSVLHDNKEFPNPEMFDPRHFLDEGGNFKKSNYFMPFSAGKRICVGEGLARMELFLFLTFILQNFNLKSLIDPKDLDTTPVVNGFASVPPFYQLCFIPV
# T2 sequence (P08684 whole entry): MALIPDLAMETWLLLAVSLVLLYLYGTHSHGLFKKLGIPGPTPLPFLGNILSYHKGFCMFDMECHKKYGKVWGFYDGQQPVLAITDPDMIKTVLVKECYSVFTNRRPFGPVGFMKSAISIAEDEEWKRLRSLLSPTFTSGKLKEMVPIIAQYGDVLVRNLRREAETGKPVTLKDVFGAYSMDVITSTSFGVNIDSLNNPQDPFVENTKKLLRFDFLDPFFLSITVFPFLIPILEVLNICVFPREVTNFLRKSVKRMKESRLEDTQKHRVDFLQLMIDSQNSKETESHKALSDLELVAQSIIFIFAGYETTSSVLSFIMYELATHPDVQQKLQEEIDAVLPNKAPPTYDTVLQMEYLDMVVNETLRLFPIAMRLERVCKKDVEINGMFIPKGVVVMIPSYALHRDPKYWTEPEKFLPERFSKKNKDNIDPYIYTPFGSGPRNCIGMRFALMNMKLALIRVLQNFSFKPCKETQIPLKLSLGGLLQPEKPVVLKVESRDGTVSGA
# Sequence of Cytochrome P450 2D6 (P10635 whole entry): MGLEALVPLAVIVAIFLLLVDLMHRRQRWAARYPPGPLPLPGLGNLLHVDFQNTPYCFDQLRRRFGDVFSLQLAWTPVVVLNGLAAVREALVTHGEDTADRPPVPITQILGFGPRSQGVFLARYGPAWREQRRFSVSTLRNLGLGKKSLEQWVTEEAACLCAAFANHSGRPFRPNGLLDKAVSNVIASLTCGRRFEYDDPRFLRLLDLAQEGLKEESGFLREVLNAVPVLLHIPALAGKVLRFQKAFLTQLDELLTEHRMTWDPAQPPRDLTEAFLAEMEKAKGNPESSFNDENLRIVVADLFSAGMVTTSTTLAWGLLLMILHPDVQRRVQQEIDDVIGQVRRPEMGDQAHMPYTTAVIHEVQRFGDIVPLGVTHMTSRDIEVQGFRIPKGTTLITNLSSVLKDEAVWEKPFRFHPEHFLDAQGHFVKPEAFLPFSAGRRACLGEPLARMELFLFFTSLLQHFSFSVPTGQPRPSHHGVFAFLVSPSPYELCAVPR
# Sequence of Cytochrome P450 2C9 (P11712 whole entry): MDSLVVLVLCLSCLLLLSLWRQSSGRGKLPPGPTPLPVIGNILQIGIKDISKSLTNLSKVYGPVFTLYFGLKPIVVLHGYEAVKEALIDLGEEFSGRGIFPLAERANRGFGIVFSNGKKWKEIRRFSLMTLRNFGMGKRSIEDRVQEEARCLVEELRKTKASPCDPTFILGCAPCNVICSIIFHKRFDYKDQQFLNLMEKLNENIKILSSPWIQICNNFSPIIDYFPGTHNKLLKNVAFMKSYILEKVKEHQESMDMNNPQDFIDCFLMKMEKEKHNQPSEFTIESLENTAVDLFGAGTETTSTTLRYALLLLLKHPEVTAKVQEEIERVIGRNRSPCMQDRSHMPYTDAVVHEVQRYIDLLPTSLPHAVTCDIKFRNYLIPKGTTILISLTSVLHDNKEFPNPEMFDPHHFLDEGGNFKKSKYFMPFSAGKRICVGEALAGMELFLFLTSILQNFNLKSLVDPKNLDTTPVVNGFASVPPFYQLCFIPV
Compound,IC50 (Cytochrome P450 2C19),IC50 (Cytochrome P450 2D6),MIC [1],MIC (Streptococcus pneumoniae),MIC (Staphylococcus aureus [2]),IC50 (Cytochrome P450 2C9),MIC (Staphylococcus aureus [3]),IC50 (Cytochrome P450 1A2),MIC (Staphylococcus aureus [4]),MIC [5],IC50 (Cytochrome P450 3A4 [6]),IC50 (Cytochrome P450 3A4 [7]),solubility [8],half-life [9],clearance [10],MRT [11],Vd [12],AUC(0-t) [13]
C=C[C@]1(C)C[C@@H](OC(=O)CSc2ccccn2)[C@]2(C)[C@H](C)CC[C@]3(CCC(=O)[C@H]32)[C@@H](C)[C@@H]1O,> 10 µM,> 10 µM,0.031 µg/mL,0.031 µg/mL,0.063 µg/mL,> 10 µM,0.031 µg/mL,> 10 µM,0.031 µg/mL,0.031 µg/mL,1.36 µM,1.25 µM,,,,,,
C=C[C@]1(C)C[C@@H](OC(=O)CSc2cccc(CO)c2)[C@]2(C)[C@H](C)CC[C@]3(CCC(=O)[C@H]32)[C@@H](C)[C@@H]1O,15.4 µM,> 25 µM,0.063 µg/mL,0.063 µg/mL,0.063 µg/mL,11.1 µM,0.063 µg/mL,> 25 µM,0.063 µg/mL,0.063 µg/mL,1.9 µM,1.95 µM,,,,,,
C=C[C@]1(C)C[C@@H](OC(=O)CSc2cncc(N)c2)[C@]2(C)[C@H](C)CC[C@]3(CCC(=O)[C@H]32)[C@@H](C)[C@@H]1O,15.5 µM,17.1 µM,0.031 µg/mL,0.063 µg/mL,0.031 µg/mL,> 25 µM,0.063 µg/mL,> 25 µM,0.031 µg/mL,0.031 µg/mL,0.0444 µM,0.135 µM,Insoluble,,,,,
C=C[C@]1(C)C[C@@H](OC(=O)CSc2cncc(NC(=O)CN)c2)[C@]2(C)[C@H](C)CC[C@]3(CCC(=O)[C@H]32)[C@@H](C)[C@@H]1O,,,0.125 µg/mL,0.063 µg/mL,0.063 µg/mL,,0.063 µg/mL,,0.063 µg/mL,0.125 µg/mL,,,,20.4 min,828 mL/min/kg,16.8 min,13.8 L/kg,41 ng·h/mL
C=C[C@]1(C)C[C@@H](OC(=O)CSc2cncc(NC(=O)[C@@H](N)[C@@H](C)CC)c2)[C@]2(C)[C@H](C)CC[C@]3(CCC(=O)[C@H]32)[C@@H](C)[C@@H]1O,,,0.25 µg/mL,0.25 µg/mL,0.25 µg/mL,,0.25 µg/mL,,0.25 µg/mL,0.25 µg/mL,,,,,,,,
C=C[C@]1(C)C[C@@H](OC(=O)CSc2cncc(NC(=O)[C@@H](N)CC(C)C)c2)[C@]2(C)[C@H](C)CC[C@]3(CCC(=O)[C@H]32)[C@@H](C)[C@@H]1O,,,0.063 µg/mL,0.063 µg/mL,0.031 µg/mL,,0.063 µg/mL,,0.063 µg/mL,0.063 µg/mL,,,,37.8 min,488 mL/min/kg,21 min,10.3 L/kg,69 ng·h/mL
C=C[C@]1(C)C[C@@H](OC(=O)CSc2cncc(NC(=O)[C@H]3CCCCN3)c2)[C@]2(C)[C@H](C)CC[C@]3(CCC(=O)[C@H]32)[C@@H](C)[C@@H]1O,,,0.125 µg/mL,0.125 µg/mL,0.125 µg/mL,,0.063 µg/mL,,0.125 µg/mL,0.031 µg/mL,,,,,,,,
C=C[C@]1(C)C[C@@H](OC(=O)CSc2cncc(NC(=O)[C@@H]3CCCN3)c2)[C@]2(C)[C@H](C)CC[C@]3(CCC(=O)[C@H]32)[C@@H](C)[C@@H]1O,,,0.125 µg/mL,0.031 µg/mL,0.125 µg/mL,,0.031 µg/mL,,0.125 µg/mL,0.063 µg/mL,,,,,,,,
C=C[C@]1(C)C[C@@H](OC(=O)CSc2cncc(NC(=O)CN(C)C)c2)[C@]2(C)[C@H](C)CC[C@]3(CCC(=O)[C@H]32)[C@@H](C)[C@@H]1O,,,0.125 µg/mL,0.125 µg/mL,0.5 µg/mL,,0.5 µg/mL,,0.125 µg/mL,0.125 µg/mL,,,,,,,,
